How the values were obtained:
[1] = test system: MDA-MB-231; assay: MTT antiproliferative assay, MDA-MB-231; details: Homo sapiens, MDA-MB-231, 48 h, read-out: IC50 MDA-MB-231
Protocol: (§1) MTT assay was used to determine the cytotoxic activity of target compounds against different cell lines. […] Then, the cells were treated with five doses of test compounds (pre-dissolved in DMSO), and 0.1% DMSO was used as a negative control. […] The results expressed as IC50 were the average of three determinations calculated by using the Bacus Laboratories Incorporated Slide Scanner (Bliss) software.

[2] = biological target: T1, c-Met (Homo sapiens, UniProt P08581); assay: In vitro c-Met enzymatic assay (HTRF); format: biochemical; details: for IC50: HTRF assay, mean ± SD, triplicate, read-out: IC50 against c-Met; for fold loss of c-Met inhibitory activity compared to 51w: ratio of c-Met IC50 to that of 51w
T1 construct: purchased Invitrogen (Waltham, MA)
Protocol: Inhibition of target compounds on c-Met kinase activity was measured by using the homogeneous time-resolved fluorescence (HTRF) assay.
The tyrosine kinases inhibitory activities of target compounds were evaluated in 384-well microtiter plates using purified kinases purchased from Invitrogen (Waltham, MA) by homogeneous time-resolved fluorescence (HTRF) assay. The HTRF KinEASE TK kit was performed according to the instructions. After the kinases and test compounds were incubated at 25–30 °C for 5 min, the kinase reactions were initiated by addition of 39 μL of kinase reaction buffer solution and incubated at 25–30 °C for 30 min. The reactions were quenched by addition 10 µL mixed detection solution. […] The inhibition rate (%) was calculated using the following equation: inhibition rate = [(activity of enzyme with tested compound – min)/(max – min)] × 100 (max: the enzyme activity in the presence of enzyme, substrates and cofactors; min: the enzyme activity in the presence of substrates, cofactors and in the absence of enzyme). IC50 value was calculated from the inhibition curve using GraphPad Prism 5.0 software (La Jolla, CA).

[3] = test system: FHC; assay: MTT cytotoxicity assay, normal FHC cells; details: Homo sapiens, 48 h, read-out: IC50 FHC
Protocol: as §1

[4] = test system: HT-29; assay: MTT antiproliferative assay, HT-29; details: Homo sapiens, HT-29, 48 h, read-out: IC50 HT-29
Protocol: as §1

[5] = test system: A549; assay: MTT antiproliferative assay, A549; details: Homo sapiens, A549, 48 h, read-out: IC50 A549
Protocol: as §1

[6] = test system: MKN-45; assay: MTT antiproliferative assay, MKN-45; details: Homo sapiens, MKN-45, 48 h, read-out: IC50 MKN-45
Protocol: as §1

[7] = test system: HUVEC; assay: MTT cytotoxicity assay, normal HUVEC cells; details: Homo sapiens, 48 h, read-out: IC50 HUVEC
Protocol: as §1

T1 sequence (P08581 25-1390): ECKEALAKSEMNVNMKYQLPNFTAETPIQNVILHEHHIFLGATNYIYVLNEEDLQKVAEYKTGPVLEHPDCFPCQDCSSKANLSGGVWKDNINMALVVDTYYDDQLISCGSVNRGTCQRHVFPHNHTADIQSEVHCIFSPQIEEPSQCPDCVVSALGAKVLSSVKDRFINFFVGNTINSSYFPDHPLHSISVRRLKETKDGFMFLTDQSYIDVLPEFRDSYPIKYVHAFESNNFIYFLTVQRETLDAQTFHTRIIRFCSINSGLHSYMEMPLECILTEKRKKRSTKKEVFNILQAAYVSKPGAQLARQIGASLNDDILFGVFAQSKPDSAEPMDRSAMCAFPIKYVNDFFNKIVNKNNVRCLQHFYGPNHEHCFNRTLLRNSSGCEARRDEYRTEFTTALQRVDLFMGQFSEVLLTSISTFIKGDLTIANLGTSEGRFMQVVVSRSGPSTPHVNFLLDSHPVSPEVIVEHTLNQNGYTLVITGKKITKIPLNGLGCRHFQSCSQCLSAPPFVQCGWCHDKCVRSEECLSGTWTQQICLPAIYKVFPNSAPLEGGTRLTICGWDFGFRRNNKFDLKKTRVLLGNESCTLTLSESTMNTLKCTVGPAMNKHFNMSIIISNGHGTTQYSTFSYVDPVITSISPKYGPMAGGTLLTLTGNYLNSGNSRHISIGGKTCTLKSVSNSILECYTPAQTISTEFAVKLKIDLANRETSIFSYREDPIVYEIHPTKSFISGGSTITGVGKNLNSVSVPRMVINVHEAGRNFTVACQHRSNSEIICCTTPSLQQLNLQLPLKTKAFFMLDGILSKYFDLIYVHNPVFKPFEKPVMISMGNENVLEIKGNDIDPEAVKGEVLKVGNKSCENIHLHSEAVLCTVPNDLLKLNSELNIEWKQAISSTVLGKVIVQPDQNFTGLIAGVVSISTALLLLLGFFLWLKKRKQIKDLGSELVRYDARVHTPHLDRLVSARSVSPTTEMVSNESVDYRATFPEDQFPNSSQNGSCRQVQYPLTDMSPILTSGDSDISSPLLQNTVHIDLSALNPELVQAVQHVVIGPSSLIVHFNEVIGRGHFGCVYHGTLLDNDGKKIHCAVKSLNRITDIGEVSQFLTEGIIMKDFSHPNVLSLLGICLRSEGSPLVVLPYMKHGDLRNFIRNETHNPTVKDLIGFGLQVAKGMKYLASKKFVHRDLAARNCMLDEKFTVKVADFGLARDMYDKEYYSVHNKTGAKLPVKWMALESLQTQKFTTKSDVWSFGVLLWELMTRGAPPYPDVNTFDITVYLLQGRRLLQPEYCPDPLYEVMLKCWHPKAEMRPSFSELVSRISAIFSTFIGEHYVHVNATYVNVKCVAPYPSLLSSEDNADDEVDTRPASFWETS

Row | IC50 [1] | IC50 [2] | IC50 [4] | IC50 [5] | IC50 [6] | melting point | fold loss of c-Met inhibitory activity compared to 51w [2] | SMILES | IC50 [3] | IC50 [7]
1 | > 50 µM | 0.0566 ± 0.00482 µM | 24.4 ± 1.68 µM | 26.4 ± 1.24 µM | 9.25 ± 0.86 µM | 145 to 147 °C | – | COc1cc2nccc(Oc3ccc(NC(=O)c4nc(-c5ccccc5)ns4)cc3)c2cc1OC [Compound 51a, N-(4-((6,7-Dimethoxyquinolin-4-yl)oxy)phenyl)-3-phenyl-1,2,4-thiadiazole-5-carboxamide] | > 100 µM | > 100 µM
2 | 11.7 ± 1.39 µM | 0.0156 ± 0.00243 µM | 4.36 ± 0.38 µM | 4.83 ± 0.72 µM | 0.95 ± 0.18 µM | 150 to 152 °C | – | O=C(Nc1ccc(Oc2ccnc(Cl)c2)c(F)c1)c1nc(-c2ccc(F)cc2)cs1 [Compound 51aa, N-(4-((2-Chloropyridin-4-yl)oxy)-3-fluorophenyl)-4-(4-fluorophenyl)thiazole-2-carboxamide] | 24.6 ± 4.23 µM | 15.3 ± 2.16 µM
3 | 10.1 ± 1.88 µM | 0.0232 ± 0.00216 µM | 6.95 ± 0.82 µM | 6.02 ± 0.87 µM | 1.49 ± 0.63 µM | 189 to 191 °C | – | O=C(Nc1ccc(Oc2ccnc(Cl)c2)c(F)c1)c1nc(-c2cccc(F)c2)cs1 [Compound 51ab, N-(4-((2-Chloropyridin-4-yl)oxy)-3-fluorophenyl)-4-(3-fluorophenyl)thiazole-2-carboxamide] | 20.2 ± 3.62 µM | 12.7 ± 0.83 µM
4 | 18.1 ± 2.14 µM | 0.0185 ± 0.00305 µM | 9.53 ± 0.75 µM | 7.54 ± 0.62 µM | 1.94 ± 0.26 µM | 168 to 170 °C | – | O=C(Nc1ccc(Oc2ccnc(Cl)c2)c(F)c1)c1nc(-c2ccccc2F)cs1 [Compound 51ac, N-(4-((2-Chloropyridin-4-yl)oxy)-3-fluorophenyl)-4-(2-fluorophenyl)thiazole-2-carboxamide] | 31.3 ± 2.63 µM | 19.4 ± 0.83 µM
5 | 15.2 ± 1.46 µM | 0.0178 ± 0.00182 µM | 8.04 ± 0.93 µM | 6.75 ± 0.55 µM | 1.74 ± 0.23 µM | 167 to 169 °C | – | O=C(Nc1ccc(Oc2ccnc(Cl)c2)c(F)c1)c1nc(-c2ccc(Cl)cc2)cs1 [Compound 51ad, 4-(4-Chlorophenyl)-N-(4-((2-chloropyridin-4-yl)oxy)-3-fluorophenyl)thiazole-2-carboxamide] | 26.5 ± 1.28 µM | 18.5 ± 2.04 µM
6 | 19.2 ± 2.35 µM | 0.0234 ± 0.00361 µM | 9.62 ± 1.56 µM | 7.08 ± 0.95 µM | 1.95 ± 0.68 µM | 171 to 173 °C | – | O=C(Nc1ccc(Oc2ccnc(Cl)c2)c(F)c1)c1nc(-c2cccc(Cl)c2)cs1 [Compound 51ae, 4-(3-Chlorophenyl)-N-(4-((2-chloropyridin-4-yl)oxy)-3-fluorophenyl)thiazole-2-carboxamide] | 24.5 ± 1.84 µM | 13.1 ± 0.95 µM
7 | 20.5 ± 3.65 µM | 0.0192 ± 0.00144 µM | 11.7 ± 1.63 µM | 8.23 ± 1.42 µM | 2.06 ± 0.45 µM | 192 to 194 °C | – | O=C(Nc1ccc(Oc2ccnc(Cl)c2)c(F)c1)c1nc(-c2ccc(Br)cc2)cs1 [Compound 51af, 4-(4-Bromophenyl)-N-(4-((2-chloropyridin-4-yl)oxy)-3-fluorophenyl)thiazole-2-carboxamide] | 21.6 ± 2.82 µM | 11.5 ± 0.83 µM
8 | 30.6 ± 2.64 µM | 0.0394 ± 0.00525 µM | 20.4 ± 3.02 µM | 12.4 ± 2.85 µM | 5.84 ± 1.21 µM | 212 to 214 °C | – | O=C(Nc1ccc(Oc2ccnc(Cl)c2)c(F)c1)c1nc(-c2ccc(C(F)(F)F)cc2)cs1 [Compound 51ag, N-(4-((2-Chloropyridin-4-yl)oxy)-3-fluorophenyl)-4-(4(trifluoromethyl)phenyl)thiazole-2-carboxamide] | – | 43.2 ± 3.53 µM
9 | 7.29 ± 1.22 µM | 0.00926 ± 0.00134 µM | 2.78 ± 0.49 µM | 3.17 ± 0.51 µM | 0.53 ± 0.42 µM | 195 to 197 °C | – | O=C(Nc1ccc(Oc2ccnc(Cl)c2)c(F)c1)c1nc(-c2ccc(Cl)c(Cl)c2)cs1 [Compound 51ah, N-(4-((2-Chloropyridin-4-yl)oxy)-3-fluorophenyl)-4-(3,4-dichlorophenyl)thiazole-2-carboxamide] | 20.4 ± 1.86 µM | 12.4 ± 0.85 µM
10 | 30.3 ± 2.16 µM | 0.0614 ± 0.00458 µM | 21.5 ± 1.58 µM | 15.3 ± 2.81 µM | 6.12 ± 1.38 µM | 182 to 184 °C | 2.6 fold | O=C(Nc1ccc(Oc2ccnc(Cl)c2)c(F)c1)c1nc(-c2ccc3ccccc3c2)cs1 [Compound 51ai, N-(4-((2-Chloropyridin-4-yl)oxy)-3-fluorophenyl)-4-(naphthalen-2-yl)thiazole-2-carboxamide] | > 100 µM | > 100 µM
11 | 25.9 ± 3.41 µM | 0.0495 ± 0.00536 µM | 17.5 ± 2.44 µM | 11.5 ± 2.17 µM | 4.55 ± 0.91 µM | 184 to 186 °C | 2.1 fold | O=C(Nc1ccc(Oc2ccnc(Cl)c2)c(F)c1)c1nc(-c2cccs2)cs1 [Compound 51aj, N-(4-((2-chloropyridin-4-yl)oxy)-3-fluorophenyl)-4-(thiophen-2-yl)thiazole-2-carboxamide] | > 100 µM | 52.3 ± 3.74 µM
12 | 4.24 ± 0.68 µM | 0.00389 ± 0.00052 µM | 1.56 ± 0.32 µM | 1.81 ± 0.34 µM | 0.22 ± 0.04 µM | 168 to 170 °C | – | O=C(Nc1ccc(Oc2ccnc(Cl)c2)c(F)c1)c1nc(-c2ccc(F)c(Cl)c2)cs1 [Compound 51ak, 4-(3-Chloro-4-fluorophenyl)-N-(4-((2-chloropyridin-4-yl)oxy)-3-fluorophenyl)thiazole-2-carboxamide] | 13.2 ± 0.84 µM | 8.52 ± 1.35 µM
13 | 5.82 ± 0.73 µM | 0.00523 ± 0.00074 µM | 1.94 ± 0.65 µM | 2.26 ± 0.68 µM | 0.35 ± 0.07 µM | 170 to 172 °C | – | O=C(Nc1ccc(Oc2ccnc(Cl)c2)c(F)c1)c1nc(-c2ccc(F)c(F)c2)cs1 [Compound 51al, N-(4-((2-Chloropyridin-4-yl)oxy)-3-fluorophenyl)-4-(3,4-difluorophenyl)thiazole-2-carboxamide] | 10.2 ± 1.65 µM | 6.14 ± 0.75 µM
14 | 4.65 ± 0.93 µM | 0.00373 ± 0.00062 µM | 0.94 ± 0.27 µM | 1.32 ± 0.35 µM | 0.15 ± 0.07 µM | 156 to 158 °C | – | O=C(Nc1ccc(Oc2ccnc(Cl)c2Cl)c(F)c1)c1nc(-c2ccc(F)c(F)c2)cs1 [Compound 51an, N-(4-((2,3-Dichloropyridin-4-yl)oxy)-3-fluorophenyl)-4-(3,4-difluorophenyl)thiazole-2-carboxamide] | 9.54 ± 1.26 µM | 4.83 ± 0.69 µM
15 | 38.6 ± 4.07 µM | 0.0501 ± 0.00514 µM | 26.5 ± 1.42 µM | 22.5 ± 3.15 µM | 7.89 ± 1.35 µM | 113 to 115 °C | – | COc1cc2nccc(Oc3ccc(NC(=O)c4nc(-c5ccc(F)cc5)ns4)cc3)c2cc1OC [Compound 51b, N-(4-((6,7-Dimethoxyquinolin-4-yl)oxy)phenyl)-3-(4-fluorophenyl)-1,2,4-thiadiazole-5-carboxamide] | > 100 µM | > 100 µM
16 | 31.8 ± 2.56 µM | 0.0291 ± 0.00353 µM | 22.4 ± 1.94 µM | 14.7 ± 3.27 µM | 4.95 ± 0.82 µM | 84 to 86 °C | – | COc1cc2nccc(Oc3ccc(NC(=O)c4nc(-c5ccc(F)cc5)cs4)cc3)c2cc1OC [Compound 51f, N-(4-((6,7-Dimethoxyquinolin-4-yl)oxy)phenyl)-4-(4-fluorophenyl)thiazole-2-carboxamide] | – | 45.5 ± 3.83 µM
17 | – | 0.0456 ± 0.00603 µM | 24.4 ± 2.14 µM | 17.5 ± 2.25 µM | 7.21 ± 0.95 µM | 136 to 138 °C | – | COc1cc2nccc(Oc3ccc(NC(=O)c4nc(-c5ccccc5)cs4)cc3C)c2cc1OC [Compound 51n, N-(4-((6,7-Dimethoxyquinolin-4-yl)oxy)-3-methylphenyl)-4-phenylthiazole-2-carboxamide] | > 100 µM | > 100 µM
18 | 28.5 ± 2.35 µM | 0.0367 ± 0.00297 µM | 14 ± 2.26 µM | 9.28 ± 1.85 µM | 3.22 ± 0.86 µM | 191 to 193 °C | – | COc1ccc(-c2csc(C(=O)Nc3ccc(Oc4ccnc(Cl)c4)c(F)c3)n2)cc1 [Compound 51y, N-(4-((2-Chloropyridin-4-yl)oxy)-3-fluorophenyl)-4-(4-methoxyphenyl)thiazole-2-carboxamide] | – | 32.4 ± 1.98 µM

Source: article PMC10467532, “Design, synthesis, and biological evaluation of thiazole/thiadiazole carboxamide scaffold-based derivatives as potential c-Met kinase inhibitors for cancer treatment” (Journal of Enzyme Inhibition and Medicinal Chemistry, 2023)
